Results published in patent US8815891B2, “Tricyclic derivative or pharmaceutically acceptable salts thereof, preparation method thereof, and pharmaceutical composition containing the same” (Je Il Pharmaceutical Co., Ltd., priority 2008, dated 2014).
Structures can show the parent of a compound that is named as a salt. Where two headings read alike, the source gives them in different places.

Molecular target: PARP-1 enzyme (Homo sapiens (Human), UniProt P09874)
Assay: Poly(ADP-ribose)polymerase [PARP-1] enzyme inhibitory activity (Trevigen PARP Assay kit)
Assay type: biochemical
Experimental: The activity of the compounds according to the present invention to inhibit the PARP-1 enzyme was examined using a PARP Assay kit (4671-096-K) purchased from Trevigen. The assay was performed following a modified previously reported method by Lee et al [Methods Find, Exp. Clin. Pharmacol., 27, 617-622, 2005].
Histone was coated on 384-well plate, which is a small volume PS plate (784101) of Greiner Bio-One, and left at 25° C. for 2 hours. After that, the plate was rinsed four times with PBS (7.5 mM Na2HPO4, 2.5 mM NaH2PO4, 145 mM NaCl, pH 7.4), and in order to prevent non-specific reaction, the Strep-diluent (provided from kit of Trevigen) was added and left at 25° C. for one hour. After one hour, the plate was again rinsed with PBS four times, and the compounds of the Examples in various concentrations were put into reactant containing PARP-1 enzyme (0.12 unit/well), 2×PARP cocktail (1.95 mM NAD^+, 50 uM biotinylated NAD^+, and activated DNA in 50 mM Tris pH 8.0, 25 mM MgCl2) and allowed to react at 25° C. for 30 minutes. After 30 minutes, each well was rinsed with PBS four times, and in order to measure the amount of rybosylation by the PARP enzyme, strepavidin-linked peroxidase (Strep-HRP, 1:1000 diluted) was added and allowed to react at 37° C. for 30 minutes. The plate was rinsed with PBS four times, and TACS-Sapphire substrate was put and allowed to react at 25° C. for 10 minutes so that color reaction occurred. Finally, the reaction was terminated by the addition of 0.2 N HCl. The amount of histone ribosylation formed by PARP-1 enzyme was quantified at 450 nm using Wallac EnVision™ (PerkinElmer Oy, Turku, Finland).

[1] = PARP-1 enzyme, histone ribosylation, 450 nm, read-out: PARP-1 Inhibitory activity IC50
[2] = read-out: PARP-1 Inhibitory activity IC50

Sequence of PARP-1 enzyme (P09874 whole entry): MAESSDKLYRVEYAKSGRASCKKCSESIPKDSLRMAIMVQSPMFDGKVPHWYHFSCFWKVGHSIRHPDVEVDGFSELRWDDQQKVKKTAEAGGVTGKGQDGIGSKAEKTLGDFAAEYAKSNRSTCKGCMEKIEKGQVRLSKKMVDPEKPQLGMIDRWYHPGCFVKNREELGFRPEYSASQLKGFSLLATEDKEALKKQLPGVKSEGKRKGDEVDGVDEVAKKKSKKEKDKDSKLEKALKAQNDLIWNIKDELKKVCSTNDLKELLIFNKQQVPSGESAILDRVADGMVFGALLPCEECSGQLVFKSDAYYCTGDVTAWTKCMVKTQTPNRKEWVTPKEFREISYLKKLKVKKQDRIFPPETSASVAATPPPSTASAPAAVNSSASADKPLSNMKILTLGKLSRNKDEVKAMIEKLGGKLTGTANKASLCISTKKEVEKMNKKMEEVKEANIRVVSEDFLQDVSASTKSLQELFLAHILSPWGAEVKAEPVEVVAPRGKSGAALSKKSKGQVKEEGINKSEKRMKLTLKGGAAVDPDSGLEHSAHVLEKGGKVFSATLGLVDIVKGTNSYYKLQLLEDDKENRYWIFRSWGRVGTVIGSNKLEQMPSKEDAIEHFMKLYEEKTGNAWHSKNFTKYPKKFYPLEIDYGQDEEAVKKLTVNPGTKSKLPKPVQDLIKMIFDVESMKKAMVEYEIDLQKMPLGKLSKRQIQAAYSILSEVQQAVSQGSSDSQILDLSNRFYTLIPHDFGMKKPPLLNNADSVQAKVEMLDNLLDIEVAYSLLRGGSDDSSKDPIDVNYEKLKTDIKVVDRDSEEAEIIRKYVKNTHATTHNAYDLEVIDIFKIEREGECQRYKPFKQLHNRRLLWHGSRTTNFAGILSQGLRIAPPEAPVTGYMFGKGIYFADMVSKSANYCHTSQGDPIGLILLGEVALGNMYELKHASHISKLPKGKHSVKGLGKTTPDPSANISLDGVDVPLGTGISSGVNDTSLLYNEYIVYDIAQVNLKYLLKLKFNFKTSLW

Row | IC50 [1] | Structure (SMILES) | IC50 [2] | IC50
1 | 1080 nM | O=c1[nH]c2ccc(OCCO)cc2c2c1CCCN2 [Example 24, 9-(2-Hydroxyethoxy)-1,2,3,4-tetrahydrobenzo[h][1,6]naphthyridine-5(6H)-one hydrochloride] | – | –
2 | – | CCCNCc1ccc2c3c(c(=O)[nH]c2c1)CCCN3 [Example 46, 8-[(Propylamino)methyl]-1,2,3,4-tetrahydrobenzo[h][1,6]naphthyridine-5(6H)-one dihydrochloride] | 590 nM | –
3 | – | CN1CCCc2c1c1cc(OCCN3CCCCC3)ccc1[nH]c2=O [Example 30, 1-Methyl-9-[2-(piperidine-1-yl)ethoxy]-1,2,3,4-tetrahydrobenzo[h][1,6]naphthyridine-5(6H)-one dihydrochloride] | 3110 nM | –
4 | 1540 nM | O=c1[nH]c2cc(Cn3cccc3)ccc2c2c1CCCN2 [Example 65, 8-[(1H-Pyrrole-1-yl)methyl]-1,2,3,4-tetrahydrobenzo[h][1,6]naphthyridine-5(6H)-one hydrochloride] | – | –
5 | – | NCCOc1ccc2[nH]c(=O)c3c(c2c1)NCCC3 [Example 22, 9-(2-Aminoethoxy)-1,2,3,4-tetrahydrobenzo[h][1,6]naphthyridine-5(6H)-one dihydrochloride] | 1160 nM | –
6 | – | CN1CCCc2c1c1ccc(CN3CCOCC3)cc1[nH]c2=O [Example 70, 1-Methyl-8-(morpholinomethyl)-1,2,3,4-tetrahydrobenzo[h][1,6]naphthyridine-5(6H)-one dihydrochloride] | 1090 nM | –
7 | – | COc1cc(CNC2CCCC2)cc2[nH]c(=O)c3c(c12)NCCC3 [Example 89, 8-[(Cyclopentylamino)methyl]-10-methoxy-1,2,3,4-tetrahydrobenzo[h][1,6]naphthyridine-5(6H)-one dihydrochloride] | 270 nM | –
8 | – | COc1cc(CN(C)CCF)cc2[nH]c(=O)c3c(c12)NCCC3 [Example 94, 8-{[(2-Fluoroethyl)(methyl)amino]methyl}-10-methoxy-1,2,3,4-tetrahydrobenzo[h][1,6]naphthyridine-5(6H)-one dihydrochloride] | 170 nM | –
9 | – | CCOc1cc(CN2CCCCC2)cc2[nH]c(=O)c3c(c12)NCCC3 [Example 102, 10-Ethoxy-8-(piperidine-1-ylmethyl)-1,2,3,4-tetrahydrobenzo[h][1,6]naphthyridine-5(6H)-one dihydrochloride] | 180 nM | –
10 | > 4000 nM | CCCN1CCCc2c1c1cc(OC)ccc1[nH]c2=O [Example 6, 9-Methoxy-1-propyl-1,2,3,4-tetrahydrobenzo[h][1,6]naphthyridine-5(6H)-one hydrochloride] | – | –
11 | – | COc1cc(CN(C)CCOC(C)C)cc2[nH]c(=O)c3c(c12)NCCC3 [Example 83, 8-{[(2-Isopropoxyethyl)(methyl)amino]methyl}-10-methoxy-1,2,3,4-tetrahydrobenzo[h][1,6]naphthyridine-5(6H)-one dihydrochloride] | 320 nM | –
12 | – | O=c1[nH]c2ccc(OCCN3CCNCC3)cc2c2c1CCCN2 [Example 19, 9-[2-(Piperazine-1yl)ethoxy]-1,2,3,4-tetrahydrobenzo[h][1,6]naphthyridine-5(6H)-one trihydrochloride] | 1480 nM | –
13 | – | N#CCNCc1ccc2c3c(c(=O)[nH]c2c1)CCCN3 [Example 63, 2-[(5-Oxo-1,2,3,4,5,6-hexahydrobenzo[h][1,6]naphthyridine-8-yl)methylamino]acetonitrile dihydrochloride] | 1020 nM | –
14 | – | CN(CCC(=O)O)Cc1ccc2c3c(c(=O)[nH]c2c1)CCCN3 [Example 58, 3-{Methyl[(5-oxo-1,2,3,4,5,6-hexahydrobenzo[h][1,6]naphthyridine-8-yl)methyl]amino}propanoic acid dihydrochloride] | 920 nM | –
15 | – | COc1cc(CN2CC(C)OC(C)C2)cc2[nH]c(=O)c3c(c12)NCCC3 (stereo not drawn) [Example 90, 8-[(2,6-Dimethylmorpholino)methyl]-10-methoxy-1,2,3,4-tetrahydrobenzo[h][1,6]naphthyridine-5(6H)-one dihydrochloride] | 780 nM | –
16 | – | CC(C)NCc1ccc2c3c(c(=O)[nH]c2c1)CCCN3 [Example 45, 8-[(Isopropylamino)methyl]-1,2,3,4-tetrahydrobenzo[h][1,6]naphthyridine-5(6H)-one dihydrochloride] | 260 nM | –
17 | – | CN1CCCc2c1c1cc(OC3CCNCC3)ccc1[nH]c2=O [Example 13, 1-Methyl-9-(piperidine-4-yloxy)-1,2,3,4-tetrahydrobenzo[h][1,6]naphthyridine-5(6H)-one dihydrochloride] | 3850 nM | –
18 | > 4000 nM | CCN1CCCc2c1c1cc(OC)ccc1[nH]c2=O [Example 9, 1-Ethyl-9-methoxy-1,2,3,4-tetrahydrobenzo[h][1,6]naphthyridine-5(6H)-one hydrochloride] | – | –
19 | – | CN1CCC(Oc2ccc3[nH]c(=O)c4c(c3c2)NCCC4)CC1 [Example 12, 9-(1-Methylpiperidine-4-yloxy)-1,2,3,4-tetrahydrobenzo[h][1,6]naphthyridine-5(6H)-one dihydrochloride] | 1070 nM | –
20 | > 4000 nM | CN1CCCc2c1c1ccccc1[nH]c2=O [Example 7, 1-Methyl-1,2,3,4-tetrahydrobenzo[h][1,6]naphthyridine-5(6H)-one hydrochloride] | – | –
21 | 50 nM | CCN(C)Cc1cc(OC)c2c3c(c(=O)[nH]c2c1)CCCN3 [Example 76, 8-{[Ethyl(methyl)amino]methyl}-10-methoxy-1,2,3,4-tetrahydrobenzo[h][1,6]naphthyridine-5(6H)-one] | – | –
22 | 190 nM | COc1cc(CO)cc2[nH]c(=O)c3c(c12)NCCC3 [Example 105, 8-(Hydroxymethyl)-10-methoxy-1,2,3,4-tetrahydrobenzo[h][1,6]naphthyridine-5(6H)-one hydrochloride] | – | –
23 | – | COc1cc(CN2CCCC2)cc2[nH]c(=O)c3c(c12)NCCC3 [Example 77, 10-Methoxy-8-(pyrrolidine-1-ylmethyl)-1,2,3,4-tetrahydrobenzo[h][1,6]naphthyridine-5(6H)-one dihydrochloride] | 50 nM | –
24 | > 4000 nM | CC[N+]1(CC)CCN(CCOc2ccc3[nH]c(=O)c4c(c3c2)NCCC4)CC1 [Example 28, 1,1-Diethyl-4-[2-(5-oxo-1,2,3,4,5,6-hexahydrobenzo[h][1,6]naphthyridine-9-yloxy]ethyl)piperazine-1-ium chloride] | – | –
25 | – | COc1cc(CN2CCC(=NO)CC2)cc2[nH]c(=O)c3c(c12)NCCC3 [Example 79, 8-{[4-(Hydroxyimino)piperidine-1-yl]methyl}-10-methoxy-1,2,3,4-tetrahydrobenzo[h][1,6]naphthyridine-5(6H)-one trihydrochloride] | – | 180 nM

Row | Structure (SMILES) | IC50 [1] | IC50 [2] | IC50
26 | COc1cc(CN(C)CCCl)cc2[nH]c(=O)c3c(c12)NCCC3 [Example 85, 8-{[(2-Chloroethyl)(methyl)amino]methyl}-10-methoxy-1,2,3,4-tetrahydrobenzo[h][1,6]naphthyridine-5(6H)-one dihydrochloride] | 180 nM | – | –
27 | CNC(C)c1ccc2c3c(c(=O)[nH]c2c1)CCCN3 (stereo not drawn) [Example 39, 8-[1-(Methylamino)ethyl]-1,2,3,4-tetrahydrobenzo[h][1,6]naphthyridine-5(6H)-one dihydrochloride] | < 1000 nM | 100 nM | –
28 | CCN(CC)CCOc1ccc2[nH]c(=O)c3c(c2c1)NCCC3 [Example 26, 9-[2-(Diethylamino)ethoxy]-1,2,3,4-tetrahydrobenzo[h][1,6]naphthyridine-5(6H)-one dihydrochloride] | < 1000 nM | 390 nM | –
